Results: the supplement of paper PMC10307832

Columns and labels:
Assay in all cases: relative viability (nuclei count vs DMSO), 5 days (fraction); higher = more cells survive
NCI-H650 = tested on: NCI-H650
Procedure, shortened: (§1)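 Cells from lung cancer lines were seeded into 1536-well plates and, one day later, dosed by pin tool. Treatments were either a single drug or a fixed dose of an anchor drug with five library-drug doses (not always all listed) in √10 steps. After 5 days, nuclei were stained in a one-step fixation (final 0.05% Triton X-100, 1% formaldehyde, 1 ug/ml Hoechst) and counted on 4× images, and relative viability is the treated-to-vehicle nuclei ratio, as the median of duplicate plates.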

LOU-NH91 = tested on: LOU-NH91
Procedure, shortened: as §1

NCI-H1755 = tested on: NCI-H1755
Procedure, shortened: as §1

HARA = tested on: HARA
Procedure, shortened: as §1

NCI-H2170 = tested on: NCI-H2170
Procedure, shortened: as §1

NCI-H23 = tested on: NCI-H23
Procedure, shortened: as §1

PC-3 [JPC-3] = tested on: PC-3 [JPC-3]
Procedure, shortened: as §1

NCI-H2126 = tested on: NCI-H2126
Procedure, shortened: as §1

BEN = tested on: BEN
Procedure, shortened: as §1

NCI-H2023 = tested on: NCI-H2023
Procedure, shortened: as §1

NCI-H441 = tested on: NCI-H441
Procedure, shortened: as §1

LCLC-97TM1 = tested on: LCLC-97TM1
Procedure, shortened: as §1

NCI-H1793 = tested on: NCI-H1793
Procedure, shortened: as §1

LU99A = tested on: LU99A
Procedure, shortened: as §1

NCI-H1666 = tested on: NCI-H1666
Procedure, shortened: as §1

NCI-H460 = tested on: NCI-H460
Procedure, shortened: as §1

NCI-H1915 = tested on: NCI-H1915
Procedure, shortened: as §1

SK-LU-1 = tested on: SK-LU-1
Procedure, shortened: as §1

NCI-H1944 = tested on: NCI-H1944
Procedure, shortened: as §1

NCI-H1395 = tested on: NCI-H1395
Procedure, shortened: as §1

A-427 = tested on: A-427
Procedure, shortened: as §1

LXF-289 = tested on: LXF-289
Procedure, shortened: as §1

NCI-H322M = tested on: NCI-H322M
Procedure, shortened: as §1

O=c1[nH]c2ccccc2n1C1CCN(CCCC(c2ccc(F)cc2)c2ccc(F)cc2)CC1 [Pimozide] + CCNC(=O)c1noc(-c2cc(C(C)C)c(O)cc2O)c1-c1ccc(CN2CCOCC2)cc1 [Luminespib] (partner 0.01 µM)
relative viability (NCI-H650; first compound 0.08 µM): 0.765 | relative viability (NCI-H650; first compound 0.253 µM): 0.76 | relative viability (NCI-H650; first compound 0.8 µM): 0.838 | relative viability (NCI-H650; first compound 2.53 µM): 0.786 | relative viability (NCI-H650; first compound 8 µM): 0.765 | relative viability (LOU-NH91; first compound 0.08 µM): 0.377 | relative viability (LOU-NH91; first compound 0.253 µM): 0.345 | relative viability (LOU-NH91; first compound 0.8 µM): 0.399 | relative viability (LOU-NH91; first compound 2.53 µM): 0.359 | relative viability (LOU-NH91; first compound 8 µM): 0.313 | relative viability (NCI-H1755; first compound 0.08 µM): 0.433 | relative viability (NCI-H1755; first compound 0.253 µM): 0.418 | relative viability (NCI-H1755; first compound 0.8 µM): 0.373 | relative viability (NCI-H1755; first compound 2.53 µM): 0.526 | relative viability (NCI-H1755; first compound 8 µM): 0.476 | relative viability (HARA; first compound 0.253 µM): 0.949 | relative viability (HARA; first compound 0.8 µM): 0.684 | relative viability (HARA; first compound 2.53 µM): 0.568 | relative viability (HARA; first compound 8 µM): 0.795 | relative viability (NCI-H2170; first compound 0.08 µM): 0.527 | relative viability (NCI-H2170; first compound 0.253 µM): 0.73 | relative viability (NCI-H2170; first compound 0.8 µM): 0.779 | relative viability (NCI-H2170; first compound 2.53 µM): 0.624 | relative viability (NCI-H2170; first compound 8 µM): 0.671 | relative viability (NCI-H23; first compound 0.08 µM): 0.236 | relative viability (NCI-H23; first compound 0.8 µM): 0.241 | relative viability (NCI-H23; first compound 2.53 µM): 0.195 | relative viability (NCI-H23; first compound 8 µM): 0.218 | relative viability (PC-3 [JPC-3]; first compound 0.08 µM): 0.402 | relative viability (PC-3 [JPC-3]; first compound 0.253 µM): 0.714 | relative viability (PC-3 [JPC-3]; first compound 0.8 µM): 0.699 | relative viability (PC-3 [JPC-3]; first compound 2.53 µM): 0.723 | relative viability (PC-3 [JPC-3]; first compound 8 µM): 0.599 | relative viability (NCI-H2126; first compound 0.08 µM): 0.901 | relative viability (NCI-H2126; first compound 0.253 µM): 0.889 | relative viability (NCI-H2126; first compound 0.8 µM): 0.842 | relative viability (NCI-H2126; first compound 2.53 µM): 0.877 | relative viability (NCI-H2126; first compound 8 µM): 0.839 | relative viability (BEN; first compound 0.08 µM): 0.3 | relative viability (BEN; first compound 0.253 µM): 0.413 | relative viability (BEN; first compound 0.8 µM): 0.324 | relative viability (BEN; first compound 2.53 µM): 0.368 | relative viability (BEN; first compound 8 µM): 0.331 | relative viability (NCI-H2023; first compound 0.08 µM): 0.755 | relative viability (NCI-H2023; first compound 0.253 µM): 0.707 | relative viability (NCI-H2023; first compound 0.8 µM): 0.709 | relative viability (NCI-H2023; first compound 2.53 µM): 0.507 | relative viability (NCI-H2023; first compound 8 µM): 0.596 | relative viability (NCI-H441; first compound 0.08 µM): 0.413 | relative viability (NCI-H441; first compound 0.253 µM): 0.404 | relative viability (NCI-H441; first compound 0.8 µM): 0.332 | relative viability (NCI-H441; first compound 2.53 µM): 0.311 | relative viability (NCI-H441; first compound 8 µM): 0.3 | relative viability (LCLC-97TM1; first compound 0.08 µM): 0.89 | relative viability (LCLC-97TM1; first compound 0.253 µM): 0.689 | relative viability (LCLC-97TM1; first compound 0.8 µM): 0.62 | relative viability (LCLC-97TM1; first compound 2.53 µM): 0.632 | relative viability (LCLC-97TM1; first compound 8 µM): 0.679 | relative viability (NCI-H1793; first compound 0.253 µM): 0.166 | relative viability (NCI-H1793; first compound 0.8 µM): 0.207 | relative viability (NCI-H1793; first compound 2.53 µM): 0.169 | relative viability (NCI-H1793; first compound 8 µM): 0.149 | relative viability (LU99A; first compound 0.08 µM): 0.242 | relative viability (LU99A; first compound 0.253 µM): 0.247 | relative viability (LU99A; first compound 0.8 µM): 0.263 | relative viability (LU99A; first compound 2.53 µM): 0.242 | relative viability (LU99A; first compound 8 µM): 0.233 | relative viability (NCI-H1666; first compound 0.08 µM): 0.922 | relative viability (NCI-H1666; first compound 0.253 µM): 1.03 | relative viability (NCI-H1666; first compound 0.8 µM): 0.979 | relative viability (NCI-H1666; first compound 2.53 µM): 0.942 | relative viability (NCI-H1666; first compound 8 µM): 0.932 | relative viability (NCI-H460; first compound 0.08 µM): 0.0367 | relative viability (NCI-H460; first compound 0.253 µM): 0.0252 | relative viability (NCI-H460; first compound 0.8 µM): 0.0202 | relative viability (NCI-H460; first compound 2.53 µM): 0.0243 | relative viability (NCI-H460; first compound 8 µM): 0.0256 | relative viability (NCI-H1915; first compound 0.08 µM): 0.807 | relative viability (NCI-H1915; first compound 0.253 µM): 0.8 | relative viability (NCI-H1915; first compound 0.8 µM): 0.714 | relative viability (NCI-H1915; first compound 2.53 µM): 0.666 | relative viability (NCI-H1915; first compound 8 µM): 0.782 | relative viability (SK-LU-1; first compound 0.08 µM): 0.219 | relative viability (SK-LU-1; first compound 0.253 µM): 0.197 | relative viability (SK-LU-1; first compound 0.8 µM): 0.206 | relative viability (SK-LU-1; first compound 2.53 µM): 0.183 | relative viability (SK-LU-1; first compound 8 µM): 0.206 | relative viability (NCI-H1944; first compound 0.08 µM): 0.634 | relative viability (NCI-H1944; first compound 0.253 µM): 0.665 | relative viability (NCI-H1944; first compound 0.8 µM): 0.644 | relative viability (NCI-H1944; first compound 2.53 µM): 0.668 | relative viability (NCI-H1944; first compound 8 µM): 0.719 | relative viability (NCI-H1395; first compound 0.08 µM): 0.846 | relative viability (NCI-H1395; first compound 0.253 µM): 0.595 | relative viability (NCI-H1395; first compound 0.8 µM): 0.704 | relative viability (NCI-H1395; first compound 2.53 µM): 0.927 | relative viability (NCI-H1395; first compound 8 µM): 0.683 | relative viability (A-427; first compound 0.08 µM): 0.703 | relative viability (A-427; first compound 0.253 µM): 0.793 | relative viability (A-427; first compound 0.8 µM): 0.936 | relative viability (A-427; first compound 2.53 µM): 0.857 | relative viability (A-427; first compound 8 µM): 0.768 | relative viability (LXF-289; first compound 0.08 µM): 0.642 | relative viability (LXF-289; first compound 0.253 µM): 0.634 | relative viability (LXF-289; first compound 0.8 µM): 0.702 | relative viability (LXF-289; first compound 2.53 µM): 0.664 | relative viability (LXF-289; first compound 8 µM): 0.632 | relative viability (NCI-H322M; first compound 0.253 µM): 0.899 | relative viability (NCI-H322M; first compound 0.8 µM): 0.858 | relative viability (NCI-H322M; first compound 2.53 µM): 0.942 | relative viability (NCI-H322M; first compound 8 µM): 0.743
